For assay [1], the target named is T1, Recombinant full-length HIV-1 Reverse Transcriptase (HIVrt) (Human immunodeficiency virus type 1 group M subtype B, UniProt P04585).
T1 construct: Recombinant full-length HIV-1 Reverse Transcriptase (HIVrt); purchased Abcam ab63979
In words: Inhibition of HIV reverse transcriptase (RdDp assay). The format is biochemical. Conditions: 1 nM HIVrt, 30° C., 40 min, 3H-TTP incorporation; Table 3 triphosphates. As for the experimental part:
Recombinant full-length HIV-1 Reverse Transcriptase (HIVrt) was purchased from Abcam, catalog #ab63979. The last 385 nucleotide region of the HCV anti-genome complementary to the 5′ untranslated region (c5′UTR) was synthesized using T7 RNA polymerase Megascript kit from Ambion (Cat #AM1333). A DNA oligo served as an internal initiation primer and was purchased from IDT. Unless otherwise specified, reaction samples consisted of 20 nM c5′UTR RNA, 100 nM DNA primer, and 1 nM HIVrt, mixed together in a buffer containing 50 mM Tris pH 7.5, 100 mM KCl, 4 mM dithiothreitol (DTT), and 12.5 mM MgCl2. Reactions were initiated at 30° C. by adding 0.1 μM adenosine triphosphate (dATP), 0.1 μM cytosine triphosphate (dCTP), 1 μM guanosine triphosphate (dGTP), and 0.32 μM ^3H-thymidine triphosphate (^3H-TTP), in a final volume of 50 μL. After 40-mins incubation, the reaction was terminated by adding 60 μL of chilled 20% (w/v) trichloroacetic acid with 500 μM ATP to precipitate nucleic acids. After incubation at 4° C. for 1 h, the sample underwent filtration on a multiscreen BV […] 96-well plate (Millipore). 40 μL Microscint-20 (Perkin Elmer) was added to the well and the counts in the sample were determined by a Trilux Microbeta microplate scintillation reader (Wallac).
All data were analyzed with GraphPad Prism. The compound concentration at which the enzyme-catalyzed rate was reduced by 50% (IC50) was calculated by fitting the data to the equation Y=% Min+(% Max−% Min)/(1+X/IC50), where Y corresponds to the percent relative enzyme activity, % Min is the residual relative activity at saturating compound concentration, % Max is the relative maximum enzyme activity, and X corresponds to the compound concentration. The Ki was calculated using the Cheng-Prusoff equation assuming competitive inhibition relative to natural dNTP incorporation: K=IC50/(1+[dNTP]/Km), where [dNTP] is the concentration of natural dNTP and Km is the apparent Km for dNTP. The standard HIVrt RNA-dependent DNA polymerization (RdDp) assay was used to determine the IC50 values.

Assay [2] concerns the target T2, Recombinant full-length HBV polymerase (HBVpol) (Hepatitis B virus genotype D subtype ayw, UniProt P03156).
T2 construct: Recombinant full-length HBV polymerase(HBVpol) was expressed in SF9 cells; made in house; host or cells: SF9 insect cells
In words: Inhibition of HBV polymerase (RdDp assay). The class given is biochemical. Conditions: HBVpol expressed in SF9 cells, 30° C., 120 min, 3H-TTP incorporation; Table 3 triphosphates; read-out: HBVrt IC50.

Consider five compounds from patent US20220033406A1, “C[…] AS ANTI-VIRALS” (priority 2018, published 2022).

Bounds are passed on as bounds.

Usually IC50 stands for the concentration that gives 50% inhibition.

T2 sequence (P03156 whole entry): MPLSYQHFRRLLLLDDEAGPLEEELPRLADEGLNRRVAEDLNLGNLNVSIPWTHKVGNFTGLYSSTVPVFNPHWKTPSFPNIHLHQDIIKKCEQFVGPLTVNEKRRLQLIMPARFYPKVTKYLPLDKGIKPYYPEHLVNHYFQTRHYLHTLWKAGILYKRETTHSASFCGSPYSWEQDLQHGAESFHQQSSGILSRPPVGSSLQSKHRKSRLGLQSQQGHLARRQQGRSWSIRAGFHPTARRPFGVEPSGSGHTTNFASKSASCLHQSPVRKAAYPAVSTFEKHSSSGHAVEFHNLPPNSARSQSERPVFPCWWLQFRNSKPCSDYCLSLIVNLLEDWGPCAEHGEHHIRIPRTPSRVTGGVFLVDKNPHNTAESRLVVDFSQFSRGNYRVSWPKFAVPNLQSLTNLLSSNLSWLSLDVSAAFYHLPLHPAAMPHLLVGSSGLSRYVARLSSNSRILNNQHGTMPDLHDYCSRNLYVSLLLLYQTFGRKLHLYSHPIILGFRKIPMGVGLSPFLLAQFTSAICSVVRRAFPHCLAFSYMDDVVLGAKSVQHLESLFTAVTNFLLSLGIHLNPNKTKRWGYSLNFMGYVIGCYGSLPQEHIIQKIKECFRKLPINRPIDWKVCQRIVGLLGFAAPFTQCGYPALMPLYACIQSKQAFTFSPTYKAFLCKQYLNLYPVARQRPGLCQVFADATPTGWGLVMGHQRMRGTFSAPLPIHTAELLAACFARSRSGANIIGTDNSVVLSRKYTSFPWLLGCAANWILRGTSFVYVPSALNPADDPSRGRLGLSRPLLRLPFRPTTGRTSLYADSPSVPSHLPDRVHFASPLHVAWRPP

Regarding `C=C1[C@@H](n2ccc(N)nc2=O)C[C@H](O)[C@@]1(C#N)COP(=O)(O)OP(=O)(O)OP(=O)(O)O` [Example 33, ((1S,3S,5S)-3-(4-Amino-2-oxopyrimidin-1(2H)-yl)-1-cyano-5-hydroxy-2-methylenecyclopentyl)methyl Tetrahydrogen Triphosphate], the half-maximal inhibitory concentration (IC50) is 0.0779 µM in assay [1] and 0.22 µM in assay [2].
The like results for `C=C1[C@@H](n2cc(C)c(=O)[nH]c2=O)C[C@H](O)[C@@]1(C#N)COP(=O)(O)OP(=O)(O)OP(=O)(O)O` [Example 32, ((1S,3S,5S)-1-Cyano-5-hydroxy-3-(5-methyl-2,4-dioxo-3,4-dihydropyrimidin-1(2H)-yl)-2-methylenecyclopentyl)methyl Tetrahydrogen Triphosphate] were, in that order, 0.476 µM and more than 1 µM.
The like results for `C=C1[C@@H](n2ccc3c(N)ncnc32)C[C@H](O)[C@@]1(F)COP(=O)(O)OP(=O)(O)OP(=O)(O)O` [Example 27, ((1S,3S,5S)-3-(4-Amino-7H-pyrrolo[2,3-d]pyrimidin-7-yl)-1-fluoro-5-hydroxy-2-methylenecyclopentyl)methyl Tetrahydrogen Triphosphate] were, in that order, 0.0659 µM and 0.0072 µM.
Regarding `C=C1[C@@H](n2cnc3c(N)ncnc32)C[C@H](O)[C@@]1(F)COP(=O)(O)OP(=O)(O)OP(=O)(O)O` [Example 26, ((1S,3S,5S)-3-(6-Amino-9H-purin-9-yl)-1-fluoro-5-hydroxy-2-methylenecyclopentyl)methyl Tetrahydrogen Triphosphate], the results for the IC50 in assay [1] and in assay [2] were 0.081 µM and 0.0082 µM, respectively.
For `C=C1[C@H](COP(=O)(O)OP(=O)(O)OP(=O)(O)O)[C@@H](O)C[C@@H]1n1ccc2c(=O)[nH]c(N)nc21` [Example 23, ((1R,3S,5S)-3-(2-Amino-4-oxo-3,4-dihydro-7H-pyrrolo[2,3-d]pyrimidin-7-yl)-5-hydroxy-2-methylenecyclopentyl)methyl Tetrahydrogen Triphosphate] the same measures were 0.383 µM and 0.0088 µM.
